Data set [1] relates to B. thetaiotaomicron ATCC 29741. Description: Antibacterial MIC, CLSI broth microdilution. It is filed as cell-based. The note with it: Bacteroides thetaiotaomicron, ATCC29741; 35° C., 18-24 hours; read-out: MIC B. thetaiotaomicron ATCC 29741. (Dilution methods test growth across graded concentrations, often in twofold steps.)
For the next data set, the system named is E. coli ATCC 25922. Put plainly: Antibacterial MIC, CLSI broth microdilution. In kind it is cell-based. Conditions: Escherichia coli, ATCC25922; 35° C., 18-24 hours. A digest of the protocol: (§1)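 CLSI broth microdilution in cation-supplemented Mueller Hinton broth, inoculum 1×10^5 cfu from 0.5 McFarland cultures diluted 1:200. Incubated 35° C in ambient air for 18-24 hours. Growth read spectrophotometrically and checked manually; MIC (μg/mL) is the lowest compound dilution inhibiting growth.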

The subject of the next data set is E. coli MG 1655. Put plainly: Antibacterial MIC, CLSI broth microdilution. In kind it is cell-based. The note with it: Escherichia coli, MG1655; 35° C., 18-24 hours. In a few lines: as §1
Another data set deals with P. acnes ATCC 11827. Description: Antibacterial MIC, CLSI broth microdilution. It is filed as cell-based. The note with it: Cutibacterium acnes, ATCC11827; 35° C., 18-24 hours. In a few lines: as §1
The next data set deals with P. acnes ATCC 6919. Put plainly: Antibacterial MIC, CLSI broth microdilution. In kind it is cell-based. Conditions: Cutibacterium acnes, ATCC6919; 35° C., 18-24 hours. In a few lines: as §1
Data set [2] deals with S. aureus RN450. Description: Antibacterial MIC, CLSI broth microdilution. It is filed as cell-based. The note with it: Staphylococcus aureus, RN450; 35° C., 18-24 hours. In a few lines:
as §1

The subject of data set [3] is S. pneumoniae 157E - Strep. Description: Antibacterial MIC, CLSI broth microdilution. In kind it is cell-based. Conditions: Streptococcus pneumoniae, 157ESTREP; 35° C., 18-24 hours; lysed horse blood. In a few lines: as §1
The nature of the next data set: in vitro. In kind it is cell-based. A digest of the protocol: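 COS-1 or CHO cells exposed to serial dilutions of test compound for 24 hours. Metabolic activity then read with resazurin (Alamar Blue): 2 hours incubation plus 30 minutes dark at room temperature, fluorescence ex 535/em 590 nm, treated versus control.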
Data set [4] concerns S. aureus RN450. Description: In vivo anti-bacterial activity, S. aureus model. The note with it: Staphylococcus aureus, sc, mice, 24 hours; for ED50: lethal IP S. aureus RN450, subcutaneous, read-out: PD50 (dose that protects 50% of the animals). Here is the method:
Groups of five mice were injected intraperitoneally with a lethal dose of S. aureus RN450 in a medium of mucin. Mice were evaluated at 24 hours to determine survival. […] In some instances, a dose response study was performed with the compound such that a PD50 (a dose of compound that protects 50% of the animals) could be calculated.

Data set [5] can be described thus: Half-life of oxidation, sodium periodate accelerated oxidation. In kind it is physicochemical. Conditions: 15 molar excess of sodium periodate, pH 11, 22° C.; read-out: half-life for oxidation (converted). Here is the method:
Not to be limited by theory, it is believed that the tissue staining may be caused oxidative instability. The tetracycline compounds were subjected to accelerated oxidation in a continuous-flow microreactor using a 15 molar excess of sodium periodate at pH 11 and 22° C. Aliquots of each reaction mixture were quenched at various time points with ascorbic acid and the disappearance of each compound was determined by RP-HPLC. Pseudo first-order rate constants and t1/2 values were obtained from the plots of log (Ao-At/Ao) versus time, where Ao is the HPLC area determined for each compound at time=0 and At is the HPLC area at time=t.

The structures appear in SMILES notation. Values after ≈ are worked out from the molar mass of the structure shown.

`C=CCONCc1ccc(O)c2c1C[C@H]1C[C@H]3[C@H](N(C)C)C(O)=C(C(N)=O)C(=O)[C@@]3(O)C(O)=C1C2=O` [AF]: the MIC in [1] was less than 4 µg/mL; against E. coli ATCC 25922, 4 to 8 µg/mL (≈ 8.01 to 16 µM); in the data set on E. coli MG 1655 it was 4 to 8 µg/mL (≈ 8.01 to 16 µM); against P. acnes ATCC 11827 it was less than 4 µg/mL; in the data set on P. acnes ATCC 6919, less than 4 µg/mL; against S. aureus RN450 [2] it was less than 4 µg/mL. Besides, the MIC in [3] was less than 4 µg/mL. In addition, the IC50 at 24 h in “in vitro” (African green monkey) and in “in vitro” (Chinese hamster) was 35 to 75 µg/mL (≈ 70.1 to 150 µM) each time. For the same molecule, in the data set on S. aureus RN450 [4], the ED50 amounted to 0.23 mg/kg.

Turning to `CN(C)c1cc(C#N)c(O)c2c1C[C@H]1C[C@H]3[C@H](N(C)C)C(O)=C(C(N)=O)C(=O)[C@@]3(O)C(O)=C1C2=O` [B], the MIC in [1] is 4 to 8 µg/mL (≈ 8.29 to 16.6 µM); with E. coli ATCC 25922, more than 8 µg/mL; in the data set on E. coli MG 1655, more than 8 µg/mL; with P. acnes ATCC 11827 it was less than 4 µg/mL; with P. acnes ATCC 6919 it was less than 4 µg/mL; against S. aureus RN450 [2] it was less than 4 µg/mL. The molecule also had an MIC in data set [3] of less than 4 µg/mL. In addition, the IC50 at 24 h in the data set “in vitro” (African green monkey) and in the data set “in vitro” (Chinese hamster) was less than 35 µg/mL throughout. Further, the half-life in data set [5] is 8.25 min.

For the molecule `CN(C)c1cccc2c1C[C@H]1C[C@H]3[C@H](N(C)C)C(O)=C(C(N)=O)C(=O)[C@@]3(O)C(O)=C1C2=O` [C], the MIC in data set [1] is more than 8 µg/mL; in the data set with E. coli ATCC 25922 it was more than 8 µg/mL; against E. coli MG 1655, more than 8 µg/mL; in the data set on P. acnes ATCC 11827, less than 4 µg/mL; against P. acnes ATCC 6919 it was less than 4 µg/mL; against S. aureus RN450 [2], less than 4 µg/mL. In [3], the MIC was less than 4 µg/mL. The IC50 at 24 h in the data set “in vitro” (African green monkey) and in the data set “in vitro” (Chinese hamster) was more than 75 µg/mL in each case. Besides, the responders at 5 mg/kg in the data set on S. aureus RN450 [4] (lethal IP S. aureus RN450, single subcutaneous dose 5 mg/kg, read-out: Percent Survival) is 100%.

`CC(C)ONCc1ccc(O)c2c1C[C@H]1C[C@H]3[C@H](N(C)C)C(O)=C(C(N)=O)C(=O)[C@@]3(O)C(O)=C1C2=O` [DV, (4S,4aS,5aR,12aS-4-Dimethylamino-3,10,12,12a-tetrahydroxy-7-isopropoxyamino-methyl)-1,11-dioxo-1,4,4a,5,5a,6,11,12a-octahydro-naphthacene-2-carboxylic acid amide]: the MIC in data set [1] was 4 to 8 µg/mL (≈ 7.98 to 16 µM); in the data set with E. coli ATCC 25922, 4 to 8 µg/mL (≈ 7.98 to 16 µM); against E. coli MG 1655 it was more than 8 µg/mL; with P. acnes ATCC 11827 it was less than 4 µg/mL; against P. acnes ATCC 6919, less than 4 µg/mL; in the data set with S. aureus RN450 [2] it was less than 4 µg/mL. Besides, the MIC in data set [3] is less than 4 µg/mL. The IC50 at 24 h in the data set “in vitro” (African green monkey) and in “in vitro” (Chinese hamster) was less than 35 µg/mL throughout. In the data set on S. aureus RN450 [4], the ED50 turned out to be 1.1 mg/kg.

On to `CN(C)[C@@H]1C(O)=C(C(N)=O)C(=O)[C@@]2(O)C(O)=C3C(=O)c4c(O)ccc(CNOCCF)c4C[C@H]3C[C@@H]12` [DW, (4S,4aS,5aR,12aS)-4-Dimethylamino-7-[(2-fluoro-ethoxyamino)-methyl]-3,10,12,12a-tetrahydroxy-1,11-dioxo-1,4,4a,5,5a,6,11,12a-octahydro-naphthacene-2-carboxylic acid amide], for which the MIC was 4 to 8 µg/mL (≈ 7.91 to 15.8 µM) in data set [1]; less than 4 µg/mL in the data set with E. coli ATCC 25922; more than 8 µg/mL in the data set with E. coli MG 1655; less than 4 µg/mL with P. acnes ATCC 11827; less than 4 µg/mL against P. acnes ATCC 6919; less than 4 µg/mL with S. aureus RN450 [2]. The molecule further gave an MIC in data set [3] of less than 4 µg/mL. Also, the IC50 at 24 h in the data set “in vitro” (African green monkey) and in “in vitro” (Chinese hamster) was more than 75 µg/mL throughout. In the data set on S. aureus RN450 [4], the ED50 worked out at 0.48 mg/kg.

Take `CN(C)[C@@H]1C(O)=C(C(N)=O)C(=O)[C@@]2(O)C(O)=C3C(=O)c4c(O)ccc(CNOCC(F)F)c4C[C@H]3C[C@@H]12` [DX]: the MIC in data set [1] is less than 4 µg/mL; against E. coli ATCC 25922 it was 4 to 8 µg/mL (≈ 7.64 to 15.3 µM); against E. coli MG 1655 it was 4 to 8 µg/mL (≈ 7.64 to 15.3 µM); in the data set on P. acnes ATCC 11827, less than 4 µg/mL; against P. acnes ATCC 6919, less than 4 µg/mL; against S. aureus RN450 [2], less than 4 µg/mL. The molecule also showed an MIC in [3] of less than 4 µg/mL. Further, the results for the IC50 at 24 h in “in vitro” (African green monkey) and in “in vitro” (Chinese hamster) were less than 35 µg/mL and 35 to 75 µg/mL (≈ 66.9 to 143 µM), respectively. Moreover, the ED50 with S. aureus RN450 [4] was determined as 0.58 mg/kg.

As a reminder, the MIC is the least concentration at which growth counts as inhibited. The IC50 is the midpoint of a concentration-inhibition curve. For orientation: half-life means the time needed for the level to fall by half in the phase considered.

The values are drawn from patent US9012433B2, “Substituted tetracycline compounds” (Paratek Pharmaceuticals, Inc., priority 2006, dated 2015).
